Laboratory results reported in PubChem BioAssay (NCI).
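1) Cells in 96-well plates. 2) Compound, 48 h, 5 concentrations. 3) Linear interpolation between surrounding doses. 4) Unreached endpoint = highest concentration. GI50 is the concentration that inhibits growth by half. TGI marks complete inhibition of growth.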

How the values were obtained:
Test in all cases: NCI anticancer screen, dose series, 48 h
HCC-2998 colon = test system: HCC-2998 colon
RPMI-8226 leukemia = test system: RPMI-8226 leukemia
NCI/ADR-RES ovarian = test system: NCI/ADR-RES ovarian
UACC-62 melanoma = test system: UACC-62 melanoma
MALME-3M melanoma = test system: MALME-3M melanoma
KM12 colon = test system: KM12 colon
BT-549 breast = test system: BT-549 breast
A549 NSCLC = test system: A549 NSCLC
T-47D breast = test system: T-47D breast
SW-620 colon = test system: SW-620 colon
NCI-H522 lung = test system: NCI-H522 lung
CCRF-CEM leukemia = test system: CCRF-CEM leukemia
A498 renal = test system: A498 renal
ACHN renal = test system: ACHN renal
MDA-MB-231 breast = test system: MDA-MB-231 breast
LOX IMVI melanoma = test system: LOX IMVI melanoma
K-562 leukemia = test system: K-562 leukemia
SF-295 CNS = test system: SF-295 CNS
NCI-H226 lung = test system: NCI-H226 lung
U251 CNS = test system: U251 CNS
SN12C renal = test system: SN12C renal
DU-145 prostate = test system: DU-145 prostate
SK-MEL-28 melanoma = test system: SK-MEL-28 melanoma
MOLT-4 leukemia = test system: MOLT-4 leukemia
UACC-257 melanoma = test system: UACC-257 melanoma
OVCAR-4 ovarian = test system: OVCAR-4 ovarian
PC-3 prostate = test system: PC-3 prostate
SNB-19 CNS = test system: SNB-19 CNS
SF-268 CNS = test system: SF-268 CNS
SNB-75 CNS = test system: SNB-75 CNS
OVCAR-3 ovarian = test system: OVCAR-3 ovarian
HS 578T breast = test system: HS 578T breast
RXF 393 renal = test system: RXF 393 renal
UO-31 renal = test system: UO-31 renal
HL-60(TB) leukemia = test system: HL-60(TB) leukemia
OVCAR-8 ovarian = test system: OVCAR-8 ovarian
MDA-MB-435 = test system: MDA-MB-435
TK-10 renal = test system: TK-10 renal
SK-MEL-2 melanoma = test system: SK-MEL-2 melanoma
SK-MEL-5 melanoma = test system: SK-MEL-5 melanoma
SK-OV-3 ovarian = test system: SK-OV-3 ovarian
OVCAR-5 ovarian = test system: OVCAR-5 ovarian
HT29 colon = test system: HT29 colon
HCT-116 colon = test system: HCT-116 colon
NCI-H460 lung = test system: NCI-H460 lung
IGROV1 ovarian = test system: IGROV1 ovarian
HOP-92 NSCLC = test system: HOP-92 NSCLC
HCT-15 colon = test system: HCT-15 colon
EKVX NSCLC = test system: EKVX NSCLC
786-0 renal = test system: 786-0 renal
MCF7 breast = test system: MCF7 breast
CAKI-1 renal = test system: CAKI-1 renal
SR leukemia = test system: SR leukemia
SF-539 CNS = test system: SF-539 CNS
M14 melanoma = test system: M14 melanoma
COLO 205 colon = test system: COLO 205 colon

With `C/C(=N\NC(=O)CSc1nc2sc3c(c2c(=O)n1-c1ccccc1)CCC(C)C3)c1ccc(Cl)cc1` (configuration not stated) the GI50 (HCC-2998 colon) was 2.76 µM, the TGI (HCC-2998 colon) was > 100 µM and the GI50 (RPMI-8226 leukemia) was 2.83 µM. The TGI (RPMI-8226 leukemia) was > 100 µM, the GI50 (NCI/ADR-RES ovarian) was 2.63 µM and the TGI (NCI/ADR-RES ovarian) was 12.6 µM. For the same compound, the GI50 (UACC-62 melanoma) was 3.57 µM, the TGI (UACC-62 melanoma) was > 100 µM and the GI50 (MALME-3M melanoma) was 11.8 µM. For the same compound, the TGI (MALME-3M melanoma) was > 100 µM, the GI50 (KM12 colon) was 2.66 µM and the TGI (KM12 colon) was > 100 µM. For the same compound, the GI50 (BT-549 breast) was 3.6 µM, the TGI (BT-549 breast) was 26.5 µM and the GI50 (A549 NSCLC) was 2.57 µM. For the same compound, the TGI (A549 NSCLC) was > 100 µM, the GI50 (T-47D breast) was 3.55 µM and the TGI (T-47D breast) was 68 µM. For the same compound, the GI50 (SW-620 colon) was 3.26 µM, the TGI (SW-620 colon) was > 100 µM and the GI50 (NCI-H522 lung) was 3.39 µM. For the same compound, the TGI (NCI-H522 lung) was 39.1 µM, the GI50 (CCRF-CEM leukemia) was 0.742 µM and the TGI (CCRF-CEM leukemia) was > 100 µM. The GI50 (A498 renal) was > 100 µM, the TGI (A498 renal) was > 100 µM and the GI50 (ACHN renal) was 1.7 µM. The TGI (ACHN renal) was > 100 µM, the GI50 (MDA-MB-231 breast) was 4.67 µM and the TGI (MDA-MB-231 breast) was > 100 µM. The GI50 (LOX IMVI melanoma) was 0.348 µM, the TGI (LOX IMVI melanoma) was 15.7 µM and the GI50 (K-562 leukemia) was 0.592 µM. The TGI (K-562 leukemia) was > 100 µM, the GI50 (SF-295 CNS) was 4.18 µM and the TGI (SF-295 CNS) was > 100 µM. The GI50 (NCI-H226 lung) was 13 µM, the TGI (NCI-H226 lung) was 52.7 µM and the GI50 (U251 CNS) was 1.98 µM. The TGI (U251 CNS) was > 100 µM, the GI50 (SN12C renal) was 3.4 µM and the TGI (SN12C renal) was > 100 µM. For the same compound, the GI50 (DU-145 prostate) was 3.63 µM, the TGI (DU-145 prostate) was > 100 µM and the GI50 (SK-MEL-28 melanoma) was 7.76 µM. The TGI (SK-MEL-28 melanoma) was > 100 µM, the GI50 (MOLT-4 leukemia) was 0.575 µM and the TGI (MOLT-4 leukemia) was > 100 µM. The GI50 (UACC-257 melanoma) was 16.1 µM, the TGI (UACC-257 melanoma) was 95.1 µM and the GI50 (OVCAR-4 ovarian) was 2.2 µM. For the same compound, the TGI (OVCAR-4 ovarian) was > 100 µM, the GI50 (PC-3 prostate) was 3.26 µM and the TGI (PC-3 prostate) was > 100 µM. For the same compound, the GI50 (SNB-19 CNS) was 4.89 µM, the TGI (SNB-19 CNS) was > 100 µM and the GI50 (SF-268 CNS) was 3.73 µM. The TGI (SF-268 CNS) was > 100 µM, the GI50 (SNB-75 CNS) was 2.55 µM and the TGI (SNB-75 CNS) was 13.7 µM. The GI50 (OVCAR-3 ovarian) was 3.33 µM, the TGI (OVCAR-3 ovarian) was > 100 µM and the GI50 (HS 578T breast) was 8.85 µM. For the same compound, the TGI (HS 578T breast) was > 100 µM, the GI50 (RXF 393 renal) was 1.53 µM and the TGI (RXF 393 renal) was 8.71 µM. The GI50 (UO-31 renal) was 2.11 µM, the TGI (UO-31 renal) was 15.8 µM and the GI50 (HL-60(TB) leukemia) was 1.51 µM. For the same compound, the TGI (HL-60(TB) leukemia) was > 100 µM, the GI50 (OVCAR-8 ovarian) was 3.31 µM and the TGI (OVCAR-8 ovarian) was 84.7 µM. The GI50 (MDA-MB-435) was 3.86 µM, the TGI (MDA-MB-435) was 66.1 µM and the GI50 (TK-10 renal) was 4.64 µM. The TGI (TK-10 renal) was > 100 µM, the GI50 (SK-MEL-2 melanoma) was 2.31 µM and the TGI (SK-MEL-2 melanoma) was 14.7 µM. For the same compound, the GI50 (SK-MEL-5 melanoma) was 4.8 µM, the TGI (SK-MEL-5 melanoma) was 19.5 µM and the GI50 (SK-OV-3 ovarian) was 3.68 µM. The TGI (SK-OV-3 ovarian) was 36.5 µM, the GI50 (OVCAR-5 ovarian) was 3.52 µM and the TGI (OVCAR-5 ovarian) was > 100 µM. For the same compound, the GI50 (HT29 colon) was 3.13 µM, the TGI (HT29 colon) was 13.3 µM and the GI50 (HCT-116 colon) was 0.578 µM. The TGI (HCT-116 colon) was > 100 µM, the GI50 (NCI-H460 lung) was 1.16 µM and the TGI (NCI-H460 lung) was > 100 µM. The GI50 (IGROV1 ovarian) was 2.82 µM, the TGI (IGROV1 ovarian) was > 100 µM and the GI50 (HOP-92 NSCLC) was 1.33 µM. For the same compound, the TGI (HOP-92 NSCLC) was 9.88 µM, the GI50 (HCT-15 colon) was 0.387 µM and the TGI (HCT-15 colon) was 25.7 µM. The GI50 (EKVX NSCLC) was 5.08 µM, the TGI (EKVX NSCLC) was > 100 µM and the GI50 (786-0 renal) was 0.366 µM. The TGI (786-0 renal) was 38.1 µM, the GI50 (MCF7 breast) was 0.439 µM and the TGI (MCF7 breast) was > 100 µM. The GI50 (CAKI-1 renal) was 2.04 µM, the TGI (CAKI-1 renal) was > 100 µM and the GI50 (SR leukemia) was 0.735 µM. For the same compound, the TGI (SR leukemia) was > 100 µM, the GI50 (SF-539 CNS) was 0.866 µM and the TGI (SF-539 CNS) was 4.02 µM. The GI50 (M14 melanoma) was 2.34 µM, the TGI (M14 melanoma) was 14.1 µM and the GI50 (COLO 205 colon) was 2.94 µM. For the same compound, the TGI (COLO 205 colon) was 17.5 µM.
